Source: patent US20200345747A1, “USE OF […] THE TREATMENT OF HEMOLYTIC UREMIC SYNDROME” (priority 2017, published 2020)
Where a name gives a salt, the structure may show the parent alone.

Tests used:
5HT1 = settings: cited from earlier work
[1] = human, in vivo
alpha1 = settings: cited from earlier work
[2] = Initial treatment of patients with atypical HUS (HUSa) with Fenoldopam; assay type: in vivo, human
α2 adrenergic receptors = settings: cited from earlier work
D2 = D2 (Homo sapiens, UniProt P14416); settings: cited from earlier work
muscarinic receptors = settings: cited from earlier work
[3] = off-label, doses 10 times lower than the standard dosage; cited from earlier work
dopamine receptor D1 = dopamine receptor D1 (Homo sapiens, UniProt P21728); settings: cited from earlier work
5HT2 = settings: cited from earlier work

Sequence of dopamine receptor D1 (P21728 whole entry, species assumed): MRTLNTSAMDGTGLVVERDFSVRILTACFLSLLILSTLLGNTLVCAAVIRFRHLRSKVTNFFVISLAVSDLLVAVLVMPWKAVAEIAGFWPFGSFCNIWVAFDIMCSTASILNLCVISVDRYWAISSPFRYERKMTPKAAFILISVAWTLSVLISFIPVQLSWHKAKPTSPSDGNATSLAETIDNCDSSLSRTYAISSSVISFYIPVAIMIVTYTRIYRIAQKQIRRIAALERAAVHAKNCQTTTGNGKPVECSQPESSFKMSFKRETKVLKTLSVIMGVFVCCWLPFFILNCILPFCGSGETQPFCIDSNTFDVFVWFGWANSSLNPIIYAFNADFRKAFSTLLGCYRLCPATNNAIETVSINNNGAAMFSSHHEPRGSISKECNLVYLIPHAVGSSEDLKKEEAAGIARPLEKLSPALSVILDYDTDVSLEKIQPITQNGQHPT
Sequence of D2 (P14416 whole entry): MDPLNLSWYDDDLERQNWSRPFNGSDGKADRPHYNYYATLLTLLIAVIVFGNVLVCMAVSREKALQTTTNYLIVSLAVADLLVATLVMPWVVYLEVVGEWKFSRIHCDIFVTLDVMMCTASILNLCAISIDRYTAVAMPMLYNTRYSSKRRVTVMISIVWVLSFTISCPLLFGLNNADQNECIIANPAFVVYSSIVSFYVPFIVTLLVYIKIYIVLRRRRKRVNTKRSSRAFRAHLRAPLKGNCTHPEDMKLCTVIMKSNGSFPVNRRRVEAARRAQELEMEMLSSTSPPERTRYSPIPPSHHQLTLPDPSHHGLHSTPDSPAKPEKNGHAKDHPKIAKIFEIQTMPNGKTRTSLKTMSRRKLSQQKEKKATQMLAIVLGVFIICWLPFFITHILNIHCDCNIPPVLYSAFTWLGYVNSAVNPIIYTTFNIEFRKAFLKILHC

Oc1ccc(C2CNCCc3c2cc(O)c(O)c3Cl)cc1 (stereo not shown) [Fenoldopam, Fenoldopam mesylate]
affinity for 5HT1 receptors (5HT1): does not have any affinity | levels of creatininemia versus control groups [1]: lower (compared with group 1) or equivalent (with group 2) | mean days in dialysis [1]: 0.3 (CI: 0-1.1) days | neurological effects during the acute phase [1]: None | permanent kidney or other damage [1]: None | preservation of kidney function (subjects treated) [1]: 10 of the 12 | reduction of the real resistive index, "on" versus "off" therapy [1]: −10.8% | side effects attributable to treatment [1]: none | subjects needing dialytic support during the acute phase of the disease [1]: 17% | affinity for alpha1 receptors (alpha1): does not have any affinity | natural course of the disease ([2]; three cases of HUSa initially treated, before anti-CS antibody): less aggressive | overall outcome after subsequent specific treatment ([2]; three cases of HUSa, pretreated before anti-CS antibody): complete relief without permanent injuries | affinity to α2 adrenergic receptors (α2 adrenergic receptors): weak affinity | affinity for D2 receptors (D2): does not have any affinity | affinity for muscarinic receptors (muscarinic receptors): does not have any affinity | efficacy in acute renal failure [3]: contrasting efficacy results | side effects in acute renal failure use [3]: without the observation of any side effects | activity at dopamine receptor D1 (dopamine receptor D1): partial agonist | affinity for 5HT2 receptors (5HT2): does not have any affinity
